Source: patent publication US20260034161A1, “2-HYDROXYPROPYL-BETA-CYCLODEXTRIN AS A CANCER THERAPY NEOADJUVANT OR ADJUVANT” (University of the Witwatersrand, Johannesburg, priority 2022, published 2026)
Entries after “also recorded” stand apart in the source; their conditions may differ.

What was measured:
[1] = system: multidrug resistance protein 1 (MDR1); assay: Vybrant MDR assay (calcein AM retention); format: cell-based; details: HT-29 cells treated with the FOLFOX chemotherapy cocktail; 1 mM MβCD, 10 mM HPβCD; preliminary data
Description: To assess the multi-drug resistant potential of cells pre- and post-EMT, the Vybrant® MDR Assay Kit (ThermoFisher Scientific, USA) was employed. This assay relies on the administration of an appropriate multidrug resistance protein 1 (MDR1) substrate, calcein acetoxymethyl ester (calcein AM) where drug-efflux potential is assessed by measuring the levels of intracellular calcein fluorescence. 10 000 cells were seeded per well in a 96-black walled plate. Following the 2-hour treatment period, cells were incubated with 0.25 μM Calcein-AM for 30 minutes at 37° C. Following this, two PBS washes were completed, and PBS administered to each well to ascertain fluorescence intensity. The Victor Nivo multi-mode microplate reader (Perkin Elmer, USA) was utilised with the excitation maximum set to 494 nm and the emission maximum set to 517 nm.
This can be attributed to alterations in lipid-raft membrane structure resulting in translocation of MDR1 to detergent soluble fractions which affects basal ATPase activity. This consequently affects the efflux potential of the MDR1 transporter. […] Fluorescence intensity (RFU) was quantified using the Victor Nivo multi-mode microplate reader (Perkin Elmer, USA) with the excitation maximum set to 494 nm and the emission maximum set to 517 nm.

[2] = system: HT-29 cells; assay: HT-29 colorectal cancer xenograft in NOD/SCID mice: tumour size, weight, metastasis; format: in vivo; parameters: Tumour reduction / Tumour gain or reduction: concentration or dose not given beside the values; details: for Average tumour size / Average tumour weight: group average, 4 mice, 3 000 mg/kg HPβCD, 10 mg/kg OXAL, 30 mg/kg 5FU i.p.; for Tumour reduction: tumour size; for Tumour reduction / Tumour gain or reduction: as compared to the untreated group; for Tumour gain or reduction: tumour weight
Description: (§1) In order to investigate the in vivo application of HPβCD as an anti-cancer agent for colorectal cancer (CRC) using NOD/SCID mice, 24 NOD/SCID mice (5-8 weeks old) were injected with 4×10^6 HT-29 cells (suspended in 10% McCoy's media and 1×PBS), until tumours developed. Once tumours reached a size of 150-200 mm^3 (1-2 weeks), treatments (12 treatments in total for each group, however only up to 6 treatments for the OXAL treated group due to obvious toxicity) were given. Treatment groups consisted of 4 mice each and included a control group (injected with 1×PBS), a group treated with HPβCD, a group treated with Oxaliplatin (OXAL) only, a group treated with 5-Fluorouracil (5FU) only, a group treated with HPβCD and OXAL and lastly a group treated with HPβCD and 5FU. Mice were intraperitoneally injected with 3 000 mg/kg of HPβCD, 10 mg/kg of OXAL and 30 mg/kg of 5FU thrice a week for 4 weeks. For combination treatments HPβCD was administered with either 5FU or OXAL chemotherapy. Mice were weighed three times a week and averages were calculated to show per week weights. When mice were euthanized, serum was collected from whole blood samples and this was further used to test cholesterol levels, as well as Aspartate aminotransferase (AST) and Alanine aminotransferase (ALT) as a measure for liver toxicity. They were then perfused and all organs, including tumours, were harvested. All organs were snap frozen and stored at −80° C. Tumour samples were further stored in 10% neutral buffered formalin (4° C.) and RNA Later (−80° C.).

[3] = system: HT-29 cells; assay: Immunofluorescence of EMT markers E-cadherin and vimentin in HT-29 cells; format: cell-based
Description: (§2) Three different mechanisms of action were used to induce EMT in breast and colorectal adenocarcinoma cell lines. Breast cancer MCF-7 cells were treated with 150 micromolar (μM) cobalt chloride (CoCl2) for 48 hours. Initially, a working stock solution of 2500 μM COCl2 was prepared by dilution in distilled water. The resulting solution was further diluted upon administration to cells cultured in cell culture media. Cell culture media composition: Dulbecco's Modified Eagle's Medium (DMEM) (Sigma Aldrich, UK) supplemented with 10% foetal bovine serum (FBS) (Celtic Molecular Diagnostics, SA) and 1% Penicillin-Streptomycin (Sigma Aldrich, UK). NMuMg cells (a normal mouse mammary cell line) were treated with 10 nanograms/millilitre of transforming growth factor beta 1 (TGF-β) for 48 hours. A stock solution of TGF-β was prepared by reconstituting 2 μg of recombinant TGF-β at 20 μg/mL in sterile 4 mM HCl containing 1 mg/mL of bovine serum albumin (BSA) diluted in water. NMuMG cells were cultured in Dulbecco's Modified Eagle Medium (DMEM) (ThermoFisher Scientific, USA), supplemented with 10% FBS, 1% Penicillin-Streptomycin, 1% GlutaMAX, and 10 μg/mL insulin. Colorectal cancer HT-29 cells were treated with 50 nanograms/millilitre of interleukin-6 (IL-6) for 24 hours. A working stock solution of 1 micrograms/millilitre of IL-6 was prepared by dilution in 0.1% BSA in phosphate-buffered saline (PBS). The resulting solution was further diluted upon administration to cells cultured in cell culture media. […]
(§3) Protein expression of EMT molecular markers in control and CoCl2, TGF-β and IL-6 treated cells was detected by employing immunofluorescence microscopy. […] E-cadherin expression was detected by Alexa Fluor 488 staining (green) while nuclei were stained with DAPI (blue) (FIG. 1). Vimentin expression was detected by Texas Red staining (red) while nuclei were stained with DAPI (blue) (FIG. 2). […]
(§4) Methyl-β-cyclodextrin (MβCD) was employed as a positive control, as it is a well-documented cholesterol depletory agent. […] Immunofluorescence intensity was quantified by utilising the ImageJ software (NIH, USA). Cells of interest and background fluorescence was analysed by considering the following parameters: area, integrated density and mean grey value. Corrected total cellular fluorescence was calculated as follows: CTCF=Integrated Density−(Area of selected cell×Mean fluorescence of background readings).
(§5) The protein expression of E-cadherin following treatment with various cholesterol targeting agents in MCF-7, NMuMg, and HT-29 cells, pre- and post-EMT induction was investigated. E-cadherin expression was determined by Alexa Fluor 488 staining (green) while nuclei were stained with DAPI (blue). […]

[4] = Serum AST and ALT as a measure of liver toxicity; details: mouse, in vivo
Description: as §1, with “When mice were euthanized, serum was collected from whole blood samples and this was further used to test cholesterol levels, as well as Aspartate aminotransferase (AST) and Alanine aminotransferase (ALT) as a measure for liver toxicity. They were then perfused and all organs, including tumours, were harvested. All organs were snap frozen and stored at −80° C. Tumour samples were further stored in 10% neutral buffered formalin (4° C.) and RNA Later (−80° C.).” left out
Blood was collected post euthanization and serum was analysed for AST and ALT levels using the IDEXX Catalyst DX Chemistry Analyzer. […]

[5] = Toxicity of HPβCD compared to simvastatin
[6] = Tolerability of treatments in tumour-bearing NOD/SCID mice; format: in vivo
Description: as §1

[7] = system: MCF-7 cells; assay: Immunofluorescence of EMT markers E-cadherin and vimentin in MCF-7 cells; format: cell-based
Description: as §2, §3, §4, §5

[8] = system: NMuMg cells; assay: RT-qPCR of cholesterol-related genes in NMuMg cells; details: NMuMg post-EMT
Description: Relative expression is presented as log 2 fold changes between conditions.
To delineate the molecular mechanism governing cholesterol-mediated EMT induction, RT-qPCR analysis of the major cholesterol-related genes were assessed in the NMuMg cell line. RNA was extracted using the Direct-Zol™ RNA MiniPrep kit (Zymo Research, Inqaba Biotec™, SA). RNA extraction was carried out as per the manufacturer's protocol. Total RNA of 1 μg was utilised for cDNA synthesis using the RevertAidFirst Strand cDNA Synthesis kit (Thermo Fisher Scientific, USA) and was carried out according to the manufacturer's protocol. qPCR was performed using the SensiFAST™ SYBR® No-ROX kit, utilising a 3-step cycle on the CFX96 Touch™ Real-Time PCR detection system (Bio-Rad).

[9] = system: NMuMg cells; assay: Immunofluorescence of EMT markers E-cadherin and vimentin in NMuMg cells; format: cell-based, mouse
Description: as §2, §3, §4, §5

[10] = Serum cholesterol levels post treatment; format: in vivo, NOD/SCID mice
Description: as §1

[11] = HT-29, post-EMT (IL-6), 2-hour treatment, 10 mM HPβCD, 1 mM MβCD
[12] = MCF-7, post-EMT (CoCl2), 2-hour treatment, 10 mM HPβCD, 1 mM MβCD
[13] = post-EMT (TGF-β), 2-hour treatment, 10 mM HPβCD, 1 mM MβCD
[14] = MCF-7, 150 μM CoCl2 for 48 hours vs control
[15] = HT-29, 50 ng/mL IL-6 for 24 hours vs control
[16] = 10 ng/mL TGF-β for 48 hours vs control

## 2-hydroxypropyl-β-cyclodextrin [HPβCD]
[1]
  intracellular retention of fluorescent calcein: increase
[2]; 3 000 mg/kg HPβCD i.p.
  average reduction in tumour size: ~17%
[2]; FIG. 9
  tumour size, visually: reduced
[2]
  Average tumour size: 1983 mm^3
  Average tumour weight: 3.5125 g
  Tumour reduction: -17.6%
  Tumour gain or reduction: 9.17%
[3]; [11]
  E-cadherin expression (immunofluorescence): increase
  vimentin expression (immunofluorescence): decrease
[4]
  AST:ALT ratio: 1.67 U/L
  liver toxicity (in words): no observed liver toxicity
[5]
  toxicity compared to simvastatin: low toxicity
[6]; 3 000 mg/kg HPβCD i.p. with OXAL or 5FU
  effect of HPβCD on toxicity of the co-administered chemotherapy: decreased the toxicity of OXAL; also recorded: reduced toxicity of OXAL; also recorded: reduce toxicity related to 5FU
[7]; [12]
  E-cadherin expression (immunofluorescence): increase
  vimentin expression (immunofluorescence): decrease
[8]; 10 mM HPβCD, 10 μM simvastatin for 2 hours
  effect on cholesterol efflux (gene expression): drastically affected
[9]; [13]
  E-cadherin expression (immunofluorescence): increase
  vimentin expression (immunofluorescence): decrease
[10]; untreated average 51 mg/dL
  average level of serum cholesterol: 65.5 mg/dL

## O=c1[nH]cc(F)c(=O)[nH]1 [5FU, 5-Fluorouracil]
[2]
  Average tumour size: 841.4 mm^3
  Average tumour weight: 1.4475 g
  Tumour reduction: -65.1%
  Tumour gain or reduction: -55%
[10]
  serum cholesterol levels (in words): significantly higher

## [Cl][Co][Cl] [CoCl2, cobalt chloride]
[7]; [14]
  E-cadherin expression following EMT induction: significantly decreased
  Vimentin expression following EMT induction: significantly increased

## O=C1[O][Pt]2([NH][C@@H]3CCCC[C@H]3[NH]2)[O]C1=O [OXAL, Oxaliplatin]
[2]
  Average tumour size: 1413 mm^3
  Average tumour weight: 1.6975 g
  Tumour reduction: -41.3%
  Tumour gain or reduction: -47.2%
[2]; mouse, in vivo
  metastasis at dissection: metastasis almost throughout the body in one mouse
[6]; 6 treatments of OXAL alone, 10 mg/kg i.p.
  unexpected death of mice in treatment group: 50%
[6]; OXAL alone 6 treatments, OXAL with HPβCD all 12 treatments of the same dose
  health outcome of treated mice: 2 died and 2 had to be euthanized
[10]
  serum cholesterol levels (in words): significantly higher

## Methyl-β-cyclodextrin [MβCD]
[1]
  intracellular retention of fluorescent calcein: increase
[8]; 1 mM MβCD for 2 hours
  effect on cholesterol biosynthesis and influx (gene expression): more significant effect

## interleukin-6 [IL-6]
[3]; [15]
  E-cadherin expression following EMT induction: significantly decreased
  Vimentin expression following EMT induction: significantly increased

## transforming growth factor beta 1 [TGF-β]
[9]; [16]
  E-cadherin expression following EMT induction: significantly decreased
  Vimentin expression following EMT induction: significantly increased
